{"source": "patent US20260256792A1", "about": "“TREATMENT OF CHRONIC SPONTANEOUS URTICARIA BY ADMINISTERING (R)-2-[3-[4-AMINO-3-(2-FLUORO-4-PHENOXY-PHENYL)PYRAZOLO[3,4-D]PYRIMIDIN-1-YL]PIPERIDINE-1-CARBONYL]-4-METHYL-4-[4-(OXETAN-3-YL)PIPERAZIN-1-YL]PENT-2-ENENITRILE” (priority 2023, published 2026)", "tested_on": "moderate-to-severe chronic spontaneous urticaria (CSU)", "test": "Phase 2 CSU study: urticaria activity score over 7 days (UAS7)", "format": "in vivo, human", "conditions": "ITT, 400 mg QPM", "description": "The study comprises a 12 week, randomized, double-blind, placebo-controlled, multi-center, dose-ranging efficacy and safety phase, followed by a 40 week open label extension (OLE) phase (see FIG. 1). The study consists of three phases and an optional OLE phase. […] Clinically, CSU is characterized by the spontaneous and recurrent appearance of pruritic hives. The proposed primary endpoints were the UAS7 at Week 12 in EU and EU reference countries and the ISS7 in the US. Regardless of where a participant was from, all assessments were the same. The UAS7 score is a composite score containing both the HSS7 and the ISS7. This allowed a global assessment of the two key components of urticaria: hives and itch. […] The UAS is a validated PRO measure. […] The daily UAS scores range from 0 to 6 point/day. […] Patients were to complete the UAS using the e-diary. […] The following secondary endpoints were to be analyzed using the same approach as for the primary endpoint: • Change from baseline in UAS7 at Week 4 • Change from baseline in UAS7 at Week 12 (for US and US reference countries) • Change from baseline in ISS7 at Week 12 (except US and US reference countries) • Change from baseline in HSS7 at Week 12 The following responder secondary endpoints were to be analyzed using the Cochran-Mantel-Haenszel test adjusted by region: • Proportion of participants with UAS7<6 at Week 12 • Proportion of participants with UAS7=0 at Week 12 Participants who received selected prohibited medications and/or rescue medications were to be considered as non-responders for time points after the medication usage. For other participants, all available data including those collected during the off-treatment period were to be used to determine the responder/non-responder status. Missing data were to be considered as non-responders.", "data": [{"smiles": "CC(C)(C=C(C#N)C(=O)N1CCC[C@@H](n2nc(-c3ccc(Oc4ccccc4)cc3F)c3c(N)ncnc32)C1)N1CCN(C2COC2)CC1", "note": "[rilzabrutinib, (R)-2-[3-[4-amino-3-(2-fluoro-4-phenoxy-phenyl)pyrazolo[3,4-d]pyrimidin-1-yl]piperidine-1-carbonyl]-4-methyl-4-[4-(oxetan-3-yl)piperazin-1-yl]pent-2-enenitrile]", "values": [{"measurement": "Non-responder n (%), UAS7 = 0", "setting": "Week 6", "value": "37 (97.4) n (%)"}, {"measurement": "Non-responder n (%), UAS7 ≤6", "setting": "Week 6", "value": "35 (92.1) n (%)"}, {"measurement": "OR for rilzabrutinib vs. placebo, UAS7 = 0", "setting": "Week 6", "value": 1.000}, {"measurement": "OR for rilzabrutinib vs. placebo, UAS7 ≤6", "setting": "Week 6", "value": 0.540}, {"measurement": "RRD (%) for rilzabrutinib vs. placebo, UAS7 = 0", "setting": "Week 6", "value": 0.0, "unit": "%"}, {"measurement": "RRD (%) for rilzabrutinib vs. placebo, UAS7 ≤6", "setting": "Week 6", "value": "−6.3", "unit": "%"}, {"measurement": "Responder n (%), UAS7 = 0", "setting": "Week 6", "value": "1 (2.6) n (%)"}, {"measurement": "Responder n (%), UAS7 ≤6", "setting": "Week 6", "value": "3 (7.9) n (%)"}, {"measurement": "Imputed non-responder n (%), UAS7 = 0", "setting": "Week 7", "value": "6 (15.8) n (%)"}, {"measurement": "Imputed non-responder n (%), UAS7 ≤6", "setting": "Week 7", "value": "6 (15.8) n (%)"}, {"measurement": "Non-responder n (%), UAS7 = 0", "setting": "Week 7", "value": "37 (97.4) n (%)"}, {"measurement": "Non-responder n (%), UAS7 ≤6", "setting": "Week 7", "value": "37 (97.4) n (%)"}, {"measurement": "OR for rilzabrutinib vs. placebo, UAS7 = 0", "setting": "Week 7", "value": 1.167}, {"measurement": "OR for rilzabrutinib vs. placebo, UAS7 ≤6", "setting": "Week 7", "value": 0.278}, {"measurement": "RRD (%) for rilzabrutinib vs. placebo, UAS7 = 0", "setting": "Week 7", "value": 0.4, "unit": "%"}, {"measurement": "RRD (%) for rilzabrutinib vs. placebo, UAS7 ≤6", "setting": "Week 7", "value": "−7.3", "unit": "%"}, {"measurement": "Responder n (%), UAS7 = 0", "setting": "Week 7", "value": "1 (2.6) n (%)"}, {"measurement": "Responder n (%), UAS7 ≤6", "setting": "Week 7", "value": "1 (2.6) n (%)"}, {"measurement": "Imputed non-responder n (%), UAS7 = 0", "setting": "Week 8", "value": "7 (18.4) n (%)"}, {"measurement": "Imputed non-responder n (%), UAS7 ≤6", "setting": "Week 8", "value": "7 (18.4) n (%)"}, {"measurement": "Non-responder n (%), UAS7 = 0", "setting": "Week 8", "value": "37 (97.4) n (%)"}, {"measurement": "Non-responder n (%), UAS7 ≤6", "setting": "Week 8", "value": "35 (92.1) n (%)"}, {"measurement": "OR for rilzabrutinib vs. placebo, UAS7 = 0", "setting": "Week 8", "value": 0.527}, {"measurement": "OR for rilzabrutinib vs. placebo, UAS7 ≤6", "setting": "Week 8", "value": 0.502}, {"measurement": "RRD (%) for rilzabrutinib vs. placebo, UAS7 = 0", "setting": "Week 8", "value": "−2.2", "unit": "%"}, {"measurement": "RRD (%) for rilzabrutinib vs. placebo, UAS7 ≤6", "setting": "Week 8", "value": "−7.0", "unit": "%"}, {"measurement": "Responder n (%), UAS7 = 0", "setting": "Week 8", "value": "1 (2.6) n (%)"}, {"measurement": "Responder n (%), UAS7 ≤6", "setting": "Week 8", "value": "3 (7.9) n (%)"}, {"measurement": "Imputed non-responder n (%), UAS7 = 0", "setting": "Week 9", "value": "6 (15.8) n (%)"}, {"measurement": "Imputed non-responder n (%), UAS7 ≤6", "setting": "Week 9", "value": "6 (15.8) n (%)"}, {"measurement": "Non-responder n (%), UAS7 = 0", "setting": "Week 9", "value": "37 (97.4) n (%)"}, {"measurement": "Non-responder n (%), UAS7 ≤6", "setting": "Week 9", "value": "35 (92.1) n (%)"}, {"measurement": "OR for rilzabrutinib vs. placebo, UAS7 = 0", "setting": "Week 9", "value": 0.330}, {"measurement": "OR for rilzabrutinib vs. placebo, UAS7 ≤6", "setting": "Week 9", "value": 0.773}, {"measurement": "RRD (%) for rilzabrutinib vs. placebo, UAS7 = 0", "setting": "Week 9", "value": "−4.9", "unit": "%"}, {"measurement": "RRD (%) for rilzabrutinib vs. placebo, UAS7 ≤6", "setting": "Week 9", "value": "−2.2", "unit": "%"}, {"measurement": "Responder n (%), UAS7 = 0", "setting": "Week 9", "value": "1 (2.6) n (%)"}, {"measurement": "Responder n (%), UAS7 ≤6", "setting": "Week 9", "value": "3 (7.9) n (%)"}, {"measurement": "Imputed non-responder n (%), UAS7 = 0", "setting": "Week 10", "value": "6 (15.8) n (%)"}, {"measurement": "Imputed non-responder n (%), UAS7 ≤6", "setting": "Week 10", "value": "6 (15.8) n (%)"}, {"measurement": "Non-responder n (%), UAS7 = 0", "setting": "Week 10", "value": "37 (97.4) n (%)"}, {"measurement": "Non-responder n (%), UAS7 ≤6", "setting": "Week 10", "value": "36 (94.7) n (%)"}, {"measurement": "OR for rilzabrutinib vs. placebo, UAS7 = 0", "setting": "Week 10", "value": 0.235}, {"measurement": "OR for rilzabrutinib vs. placebo, UAS7 ≤6", "setting": "Week 10", "value": 0.279}, {"measurement": "RRD (%) for rilzabrutinib vs. placebo, UAS7 = 0", "setting": "Week 10", "value": "−7.9", "unit": "%"}, {"measurement": "RRD (%) for rilzabrutinib vs. placebo, UAS7 ≤6", "setting": "Week 10", "value": "−11.9", "unit": "%"}, {"measurement": "Responder n (%), UAS7 = 0", "setting": "Week 10", "value": "1 (2.6) n (%)"}, {"measurement": "Responder n (%), UAS7 ≤6", "setting": "Week 10", "value": "2 (5.3) n (%)"}, {"measurement": "Imputed non-responder n (%), UAS7 = 0", "setting": "Week 11", "value": "7 (18.4) n (%)"}, {"measurement": "Imputed non-responder n (%), UAS7 ≤6", "setting": "Week 11", "value": "7 (18.4) n (%)"}, {"measurement": "Non-responder n (%), UAS7 = 0", "setting": "Week 11", "value": "36 (94.7) n (%)"}, {"measurement": "Non-responder n (%), UAS7 ≤6", "setting": "Week 11", "value": "35 (92.1) n (%)"}, {"measurement": "OR for rilzabrutinib vs. placebo, UAS7 = 0", "setting": "Week 11", "value": 1.065}, {"measurement": "OR for rilzabrutinib vs. placebo, UAS7 ≤6", "setting": "Week 11", "value": 0.418}, {"measurement": "RRD (%) for rilzabrutinib vs. placebo, UAS7 = 0", "setting": "Week 11", "value": 0.3, "unit": "%"}, {"measurement": "RRD (%) for rilzabrutinib vs. placebo, UAS7 ≤6", "setting": "Week 11", "value": "−9.4", "unit": "%"}, {"measurement": "Responder n (%), UAS7 = 0", "setting": "Week 11", "value": "2 (5.3) n (%)"}, {"measurement": "Responder n (%), UAS7 ≤6", "setting": "Week 11", "value": "3 (7.9) n (%)"}, {"measurement": "Imputed non-responder n (%), UAS7 = 0", "setting": "Week 12", "value": "10 (26.3) n (%)"}, {"measurement": "Imputed non-responder n (%), UAS7 ≤6", "setting": "Week 12", "value": "10 (26.3) n (%)"}, {"measurement": "Non-responder n (%), UAS7 = 0", "setting": "Week 12", "value": "37 (97.4) n (%)"}, {"measurement": "Non-responder n (%), UAS7 ≤6", "setting": "Week 12", "value": "36 (94.7) n (%)"}, {"measurement": "OR for rilzabrutinib vs. placebo, UAS7 = 0", "setting": "Week 12", "value": 0.194}, {"measurement": "OR for rilzabrutinib vs. placebo, UAS7 ≤6", "setting": "Week 12", "value": 0.378}, {"measurement": "RRD (%) for rilzabrutinib vs. placebo, UAS7 = 0", "setting": "Week 12", "value": "−10.0", "unit": "%"}, {"measurement": "RRD (%) for rilzabrutinib vs. placebo, UAS7 ≤6", "setting": "Week 12", "value": "−7.6", "unit": "%"}, {"measurement": "Responder n (%), UAS7 = 0", "setting": "Week 12", "value": "1 (2.6) n (%)"}]}]}
